Reference: patent US20170168056A1, “METHODS AND COMPOSITIONS FOR DETECTING AND MODULATING CANCER CELLS” (Massachusetts Institute of Technology, priority 2015, published 2017)
Positions count from the first letter of the chain named.

Assays:
MDA-MB-231 cells [1] = experiment: Cell viability assay (Prestoblue) in MDA-MB-231 cells expressing GFP, GFP-Mena or GFP-Mena^INV; conditions: 72 h; for effect of Mena or Mena^INV expression on fraction of viable cells / response to drug: range of concentrations
Experimental: Cell viability assays were performed in a 96-well plate. 5,000 cells were plated per well and treated with drug 24 hours later. Cell viability was assayed 72 hours later using the PrestoBlue Cell Viability Reagent (Life Technologies), according to manufacturer's protocol. Fluorescence was measured and normalized to cells exposed to vehicle. The activity area was calculated from doseresponse plots using Matlab. All measurements were repeated in triplicate.

microtubules (MT) = experiment: Immunofluorescence ratio of Glu-MT (stable) to Tyr-MT (dynamic); type: cell-based, human; conditions: 231-MENA^INV cells, 24 hours
Experimental: Immunofluorescence. Glass bottom dishes (Mattek) were coated with Collagen at 0.1 mg/mL diluted in PBS and 50 μg/mL FN for 1 hour at 37° C. Cells were plated for 1 hour, and then treated with paclitaxel alone or in combination with MEKi for 24 hours. Cells were fixed for 20 minutes in 4% paraformaldehyde in PHEM buffer with 0.1% Gluteraldehyde, and then quenched with sodium borohydrate for 5 minutes. Cells were blocked with 2% BSA in TBS-0.1%TritonX-100 for 30 minutes, and incubated with primary antibodies and then secondary antibodies for 1 hour each, at room temperature. Z series of images were taken on an Applied Precision DeltaVision microscope using Softworx acquisition, an Olympus 60×1.4 NA plan apo objective and a Photometrics CoolSNAP HQ camera. Images were deconvolved using Deltavision Softworx software and objective specific point spread function. Images were analyzed with ImageJ, where the whole cell intensity levels of Tyr- or Glu-MT was measured. Images are pooled from at least 3 independent experiments.
Paclitaxel promotes cell death by increasing the stability of MTs, and pathways driving increased MT dynamics are known to promote resistance to taxanes. Therefore, MT structure and dynamics in MENA isoform expressing cells was examined during paclitaxel treatment. […] Post-translational modification of MTs can regulate their dynamics, and antibodies that detect such modifications can be used to infer the relative dynamics of MT populations; in particular, MT tyrosination indicates a dynamic MT state, while de-tyrosination of MTs is associated with increased stability. The relative abundance of stable (Glu-MT) vs. dynamic (Tyr-MT) MTs was measured in individual cells by immunofluorescence with anti-Glu-MT and anti-Tyr-MT antibodies (FIGS. 37A, 37B).
(§1) The MAPK signaling cascade is among the key pathways known to interact with MTs. Both ERK1/2 interact with MTs; MT stabilization by paclitaxel increases ERK phosphorylation and, in turn, ERK pathway activation increases MT dynamics.

ERK, Akt = experiment: Western blot for pERK Y204, ERK, pAkt473 and Akt; type: cell-based, human; conditions: 231-MENA^INV cells; 10 nM paclitaxel, 0.1 μM MEKi, 72 hours
Experimental: (§2) Western blot. Cells were lysed in 25 mM Tris, 150 mM NaCl, 10% glycerol, 1% NP 40 and […] EDTA with a protease Mini-complete protease inhibitors (Roche) and a phosphatase inhibitor cocktail (PhosSTOP, Roche) at 4° C. for 20 minutes. Protein lysates were separated by SDS-PAGE, transferred to a nitrocellulose membrane and blocked with Odyssey Blocking Buffer (LiCor). Membranes were incubated with primary antibody overnight at 4° C. and Licor secondary antibodies at room temperature for 1 hour. Protein level intensity was measured with Image J.
as §1

MDA-MB-231 cells [2] = experiment: Proliferation assay (cell count) with combinations of paclitaxel and MEKi; type: cell-based, human
Mena = Mena expression in cultured cells after taxane treatment (Western blot, FACS of GFP); type: cell-based, human; conditions: MDA-MB-231 populations expressing GFP, GFP-MENA or GFP-MENA^INV
Experimental: Taxol treatment induces increased Mena protein expression in vitro and in vivo. As high level of Mena or Mena^INV expression correlated with low response to Taxo, we hypothesized that Taxol treatment might affect Mena expression. […]. After 72 h of treatment with the drug, the expression level of Mena was 70% higher than in vehicle-treated cells.
as §2
Paclitaxel treatment selects for high MENA expression in vitro and in vivo. The Examples so far indicate that increased MENA or MENA^INV expression levels are associated with reduced responses to paclitaxel. The effect of paclitaxel treatment on levels of MENA expression in cell populations in vitro and in vivo was examined. First, endogenous MENA expression by Western Blot in 5 breast cancer cell lines that were exposed to 100 nM of paclitaxel or a vehicle control were analyzed (FIG. 33A).

[3] = tested on: MDA-MB-231 xenograft tumors; experiment: Xenograft tumor growth in NOD-SCID mice with chemotherapy treatment; type: in vivo, mouse; conditions: three doses Taxol/paclitaxel 10 mg/kg or two doses Doxorubicin 5 mg/kg
Experimental: Mena or Mena^INV expression blocks Taxol efficacy on tumors in treated animals. Mice with xenograft tumors were generated by injection of MDA-MB-231 cells expressing GFP (Control), GFP-Mena (Mena) or GFP-Mena^INV (Mena^INV) into the mammary fat pads of NOD-SCID mice. […] Tumor size was measured before and after treatment. […] These in vivo findings are consistent with the results obtained in the in vitro data, and indicate that Men/Mena^INV promotes resistance to Taxol as judged by tumor growth.
Xenograft tumor generation and in vivo chemotherapy treatment. All animal experiments were approved by the MIT Division of Comparative Medicine. 2 million MDA-MB-231 cells expressing different MENA isoforms (in PBS and 20% collagen I) were injected into the 4th right mammary fat pad of six week-old female NOD-SCID mice (Taconic). When the tumors reached 1 cm in diameter, mice were treated every five days with either three doses of paclitaxel at 10 mg/kg in 1% DMSO, 3% PEG (MW 400), 1% Tween 80 in PBS by intra-peritoneal injection. In parallel, mice were treated with only in 1% DMSO, 3% PEG (MW 400), 1% Tween 80 in PBS as a vehicle control. One day after the last injection, tumors were measured and mice were use for intravital imaging and then sacrificed. Their tumors and lungs were fixed in 10% formalin overnight, their bone marrow were collected using PBS and cultured in DMEM with 10% fetal bovine serum. The number of tumor cell colonies in cultured bone morrow was counted 1 month after collection. The number of metastasis in each lobe of the lung were counted from lung H&E stained sections visualized by light microscopy and counted by two blinded individuals. Each tumor group contained 3-5 mice.
MENA isoform expression is associated with increased tumor growth in vivo during paclitaxel treatment. Whether MENA-associated paclitaxel resistance could also be observed in vivo was examined. Xenograft tumors were generated by injecting MDA-MB-231 cells expressing MENA isoforms into the mammary fat pads of NOD-SCID mice. Mice were treated with paclitaxel once tumors reached 1 cm in diameter (FIG. 30A).

SKBr3 cells = experiment: Wound closure assay, SKBr3 cells with Mena^11a-specific shRNA; type: cell-based, human; conditions: twenty-four hours
Experimental: (§3) The Mena^11a knockdown procedure employed shRNAs was based on 97-mer oligos (Invitrogen) comprising the shRNAs amplified by PCR with primers having EcoRI/XhoI sites, and were cloned into the pMSCV-miR30-MLS-GFP vector (gift from Michael Hemann, Koch Institute, MIT). Oligo sequences are:
(§4) Mena^11a-specific depletion enhances cell migration and membrane protrusion. Previously, the effects of Mena^11a on cancer cell motility were evaluated in assays utilizing ectopic expression. To study the role of endogenously expressed Mena^11a on cancer cell motility, we used Mena^11a-KD cells, including T47D and SKBr3 human breast cancer cells which have >80% reduction of Mena^11a protein levels (FIG. 15A-B, 15E-F), in wound closure assays. […] T47D cells yielded similar results (FIG. 15C-D), although complete closure of the control T47D cells took longer than with SKBr3 cells. […] Therefore, depletion of the Mena^11a isoform from cells that normally express both Mena and Mena^11a increased cell migration rates.

T47D cells = experiment: Wound closure assay and morphology (circularity), T47D cells with Mena^11a-specific shRNA; type: cell-based, human; conditions: for percent of cell free region filled (gap closure): 48 hours; for circularity of cells at the free edge of the monolayer: perfect circularity=1
Excerpt: as §3
Signal intensities from antibodies or rhodamine-labeled barbed ends along the cell edge were quantified with a contour-based ImageJ macro. We measured the distribution of signal along the membrane plotted as a function of distance from the cell edge (mean±SEM) and the sum of the intensities in the first 0.65 μm from the cell edge. Circularity measures were performed by manually tracing the cells at the free edge of the epithelial monolayer, and by using the circularity plugin built in ImageJ. In this analysis, a circularity value of 1 indicates a perfect circle while, as the value approaches 0, it indicates an elongated cell shape. For quantitative imaging, we used the same hardware configuration and exposure time for all cell lines analyzed in the same experiment. […] Extracted pixel intensities were exported to Microsoft Excel for analysis and Graph-Pad Prism for graphing.
as §4
Consistent with changes in migration, we observed that the morphology of T47D Mena^11a-KD cells differed from control-KD cells, specifically at the free edge of the monolayer (FIG. 151).

Molecule: COc1cc2c(cc1OC)CN(CCc1ccc(-n3nnc(-c4cc(OC)c(OC)cc4NC(=O)c4cc(=O)c5ccccc5o4)n3)cc1)CC2 [HM30181]
- fraction of viable cells on co-treatment with 100 nM paclitaxel (MDA-MB-231 cells [1]; 231-Control cells, HM30181 100 nM): negligibly affected
- paclitaxel efficacy on co-treatment with MDR1 inhibitor (MDA-MB-231 cells [1]; 231-MENA^INV cells, 100 nM paclitaxel): did not increase paclitaxel efficacy

Molecule: O=C(NOC[C@H](O)CO)c1ccc(F)c(F)c1Nc1ccc(I)cc1F [PD0325901]
- stable MTs relative to dynamic MTs, both drugs simultaneously (microtubules (MT); paclitaxel plus MEKi): induced increases in stable MTs relative to dynamic MTs
- stable MTs relative to dynamic MTs, either drug alone (microtubules (MT); single drug): had no effect
- paclitaxel-induced ERK phosphorylation (ERK, Akt): blocked
- concentrations needed to obtain high levels of cell death relative to 231-Control cells (MDA-MB-231 cells [2]; 231-MENA and 231-MENA^INV cells): higher concentrations of each drug were needed
- combination of paclitaxel and MEKi in proliferation assay (cell death) (MDA-MB-231 cells [2]; all cell lines, 72 hours, both drugs simultaneously): significant additive effects

Molecule: CC(=O)O[C@@]12CO[C@@H]1C[C@H](O)[C@@]1(C)C(=O)[C@H](O)C3=C(C)[C@@H](OC(=O)[C@H](O)[C@@H](NC(=O)OC(C)(C)C)c4ccccc4)C[C@@](O)([C@@H](OC(=O)c4ccccc4)[C@H]21)C3(C)C [docetaxel]
- FACS analysis of GFP expression levels after taxane treatment (Mena): selected for cells expressing higher levels of GFP-MENA or GFP-MENA^INV, but not of GFP

Molecule: N.N.[Cl][Pt][Cl] [Cisplatin]
- effect of Mena or Mena^INV expression on fraction of viable cells / response to drug (MDA-MB-231 cells [1]): neither GFP-Mena nor GFP-MenaINV expression affected the fraction of viable MDA-MB-231 cells differently than the GFP controls
- effect of Mena or Mena^INV expression on fraction of viable cells / response to drug (MDA-MB-231 cells [1]; listed as cisplatin): neither MENA nor MENA^INV expression affected the response

Molecule: COc1cccc2c1C(=O)c1c(O)c3c(c(O)c1C2=O)C[C@@](O)(C(=O)CO)C[C@@H]3O[C@H]1C[C@H](N)[C@H](O)[C@H](C)O1 [Doxorubicin]
- growth of control tumors compared to vehicle ([3]; GFP (Control) tumors): significantly decreased growth of control tumors
- growth / response of Mena or Mena^INV tumors ([3]; Mena or Mena^INV expressing tumors): decreased response
- effect of Mena or Mena^INV expression on fraction of viable cells / response to drug (MDA-MB-231 cells [1]): neither MENA nor MENA^INV expression affected the response

B1: sh-1C: paired control shRNA for sh-1, SEQ ID NO. 7 (nucleic acid)
guide: TGCTGTTGACAGTGAGCGAATGATTCCTTAAACAGCCCAATAGTGAAGCCACAGATGTATTGGGCTGTTTAAGGAATCATGTGCCTACTGCCTCGGA
- percent of initially cell-free region filled (gap closure) (SKBr3 cells): 49.03% ±4.2
- percent of cell free region filled (gap closure) (T47D cells): 50.41% ±3.7
- circularity of cells at the free edge of the monolayer (T47D cells): 0.683

B2: sh-1: shRNA targeting the 11a insertion of Mena^11a, SEQ ID NO. 6 (nucleic acid)
guide: B1 guide with A19C, C27A, A31C, C36A, G64T, T69G, G73T, G81A
- percent of initially cell-free region filled (gap closure) (SKBr3 cells): 74.76% ±4.8
- percent of cell free region filled (gap closure) (T47D cells): 78.39% ±4.8
- circularity of cells at the free edge of the monolayer (T47D cells): 0.614

B3: sh-2C: paired control shRNA for sh-2, SEQ ID NO. 9 (nucleic acid)
guide: TGCTGTTGACAGTGAGCGAAACAGGTCATAGGATTAATTATAGTGAAGCCACAGATGTATAATTAATCCTATGACCTGTTCTGCCTACTGCCTCGGA
- percent of initially cell-free region filled (gap closure) (SKBr3 cells): 55.24% ±1.8
- percent of cell free region filled (gap closure) (T47D cells): 40.38% ±4.2
- circularity of cells at the free edge of the monolayer (T47D cells): 0.640

B4: sh-2: shRNA targeting the 11a insertion of Mena^11a, SEQ ID NO. 8 (nucleic acid)
guide: B3 guide with A19C, A28C, G31T, A36C, T64G, C69A, T72G, C81A
- percent of initially cell-free region filled (gap closure) (SKBr3 cells): 77.84% ±3.6
- percent of cell free region filled (gap closure) (T47D cells): 70.20% ±8.8
- circularity of cells at the free edge of the monolayer (T47D cells): 0.509
